Legend:
Conditions in all cases: 10 mM Tris-HCl, pH 7.4
[1] = tested on: DNA aptamer or structured DNA CTTACGACGGAGGTTGGGAAGGAGGGGGAGGCCGGAGAGTCGTAAG
[2] = tested on: DNA aptamer or structured DNA CTTACGACTAGTTCGGATAAGGGGTAGGTGTGGTTGTGGTCGTAAG
[3] = tested on: DNA aptamer or structured DNA CTTACGACTAGGTGTGGGTCGGCTTTTTTTTAAGGGTAGTCGTAAG
[4] = tested on: DNA aptamer or structured DNA CTTACGACACCGGGATCCAGATGGGTAGTTTGATGTGTGTCGTAAG
[5] = tested on: DNA aptamer or structured DNA CTTACGACGTAGCTTCGGGTGTTCTGGGTGAGCTCTGCGTCGTAAG
[6] = tested on: DNA aptamer or structured DNA CTTACGACTACGGTTGGTTCAGGGGGTAGGTGCTTTGGGTCGTAAG
[7] = tested on: DNA aptamer or structured DNA GGGACGACGCAAATGGAAGCATTGGTTGTGTTCACACTGCTGGGTCGTCCC
[8] = tested on: DNA aptamer or structured DNA GGGACGACGGAAGGGTGTGCTGCGGTTTGGCTTCTGGCGTCGTCCC
[9] = tested on: DNA aptamer or structured DNA GGGACGACCTAGGGCTTGGGTTTAGGTGTGGGGTGTTGGGTCGTCCC
[10] = tested on: DNA aptamer or structured DNA CTTACGACGAGCGCGTGTGGCCGGCGTGAGGGAGGTGAGTCGTAAG
[11] = tested on: DNA aptamer or structured DNA CTTACGACACATTTGGGTATTCTGGGTGAGCTGTGTCGTAAG
[12] = tested on: DNA aptamer or structured DNA GGGACGACAGAGGTTAGGTGTAGGTTTTTGGGTCCTGTCGTCCC
[13] = tested on: DNA aptamer or structured DNA GGGACGACGGCTTGCATTGAGCAGAAGGGGTACACGCTGTCGTCCC
[14] = tested on: DNA aptamer or structured DNA TTCAAATCTGAGCAGCCTAGTTACTGACGGGTTTATAGTACTCGCACTGAGTCTAGATTTGAA
[15] = tested on: DNA aptamer or structured DNA CTTACGACCTGTTCTGAGGGTCAACCTTTGGTGTAGTGGTCGTAAG
[16] = tested on: DNA aptamer or structured DNA CTTACGACTAGGTGTGGGTCGGCTCAATTCGGAGGGTAGTCGTAAG
[17] = tested on: DNA aptamer or structured DNA CTTACGACACAGGGCGTGGAGGAGCTGGGCTATTAGGGGTCGTAAG
[18] = tested on: DNA aptamer or structured DNA CTTACGACGTTGGGCTTATTAGGGGCTGGAGTGGGTGAGTCGTAAG
[19] = tested on: DNA aptamer or structured DNA CTTACGACGAGCATCGGTTTTTTCGGTGATGTCTGGGAGTCGTAAG
[20] = tested on: DNA aptamer or structured DNA CTTACGACCGGGATCCTTTGGGACAACCTGGTGGGCATGTCGTAAG
[21] = tested on: DNA aptamer or structured DNA TTCAAATCTAGCGCAGGTAGGGGTGTAGGTGTGGGGGTAAGTCTAGATTTGAA
[22] = tested on: DNA aptamer or structured DNA GGGACGACTAGCTGGTGCGTTGTCCGAAGTCATGAGTAGTCGTCCC
[23] = tested on: DNA aptamer or structured DNA CTTACGACGTGTGCTGTTGGTTCTAGGGTAGGATGGCGTCGTAAG
[24] = tested on: DNA aptamer or structured DNA CTTACGACGCGGACGTTGTGGGGCGTGGCAGTCGGTGAGTCGTAAG
[25] = tested on: DNA aptamer or structured DNA CTTACGACGGGTGCTGTTGGTTCTAGGGGTAGGATGGCGTCGTAAG
[26] = tested on: DNA aptamer or structured DNA CTTACGACTAGTCGGTGGGGGGTAGGCGGAGGGTTGTTGTCGTAAG
[27] = tested on: DNA aptamer or structured DNA TTCAAATCTTGGTACGTTCTGCCTTTTCTTATTTTGCTTTGGGTTACCTAGTCTAGATTTGAA
[28] = tested on: DNA aptamer or structured DNA GGGACGACTGCTTGGGTAGGTCGGGTTTGGGTTCGGCGGTCGTCCC
[29] = tested on: DNA aptamer or structured DNA CTTACGACAGGCGGTGTGGTGCTGGGAATAGGGATGGTGTCGTAAG
[30] = tested on: DNA aptamer or structured DNA GGGACGACTGCTTGGGTAGGTCGGGCTTGGGTTCGGCGGTCGTCCC
[31] = tested on: DNA aptamer or structured DNA CTTACGACACAGGGGGGGGCTAGGGTGCGCGGGAGCTGGTCGTAAG
[32] = tested on: DNA aptamer or structured DNA CTTACGACACACGGTGTGGATGAGGTGGGCTAATAGGGGTCGTAAG
[33] = tested on: DNA aptamer or structured DNA GGGACGACGGGGCTGTGGGAGGGGGTTCATGGGTCCCGGTCGTCCC
[34] = tested on: DNA aptamer or structured DNA CTTACGACGGGTGGGGAGGCCCTCTAGTTGGGAACGGTGTCGTAAG
[35] = tested on: DNA aptamer or structured DNA CTTACGACAATCTTTTGGGTGTTCTGGGTGAGGTGTTTGTCGTAAG
Throughout, for binding call: call rule not given here.

Compound | binding call [1] | binding call [4] | binding call [7] | binding call [8] | binding call [9] | binding call [10] | binding call [12] | binding call [13] | binding call [14] | binding call [19] | binding call [20] | binding call [21] | binding call [22] | binding call [27] | binding call [28] | binding call [30] | binding call [33] | binding call [34] | other results
COC(=O)[C@@H]1C2CCC(C[C@@H]1OC(=O)c1ccccc1)N2C (stereo partly drawn) | no binding | no binding | binds | no binding | binds | no binding | no binding | no binding | no binding | no binding | no binding | no binding | no binding | no binding | binds | no binding | no binding | no binding | Kd [2]: 192 nM; Kd [3]: 352 nM; Kd [5]: 833 nM; Kd [6]: 198 nM; Kd [11]: 602 nM; Kd [15]: 216 nM; Kd [16]: 461 nM; Kd [17]: 1190 nM; Kd [18]: 617 nM; Kd [23]: 93 nM; Kd [24]: 1030 nM; Kd [25]: 107 nM; Kd [26]: 122 nM; Kd [29]: 266 nM; Kd [31]: 282 nM; Kd [32]: 69 nM; Kd [35]: 378 nM
CCN(CC)CCOC(=O)c1ccc(N)cc1 | no binding | no binding | binds | no binding | no binding | no binding | no binding | no binding | no binding | binds | no binding | no binding | no binding | no binding | binds | binds | no binding | no binding | binding call [2]: binds; binding call [3]: no binding; binding call [5]: no binding; binding call [6]: binds; binding call [11]: no binding; binding call [16]: no binding; binding call [17]: no binding; binding call [18]: no binding; binding call [23]: binds; binding call [24]: no binding; binding call [25]: binds; binding call [26]: no binding; binding call [29]: binds; binding call [31]: binds; binding call [32]: no binding

— the AptaBench aptamer set (doi:10.1093/nar/gkaf219)
